Experiments:
ZIKV [1] = assay: ZIKV titer-reduction assay (plaque assay); type: cell-based, Zika virus; settings: Huh7, MOI 0.2, 72 hpi; for inhibition at 8.5 µM / inhibition at 1.5 µM: Huh-7, 72 h
Protocol: Selected compounds were validated at 8.5 µM or 1.5 µM (for compounds considered toxic at higher concentrations) using titer-reduction assays. Huh7 cells (1.5 × 10^5 per well) were plated in 24-well plates. Next day, the cells were inoculated with ZIKV or DENV (MOI 0.2 or 0.05, respectively) and two hours later, the inoculum was replaced with post-infection medium containing compound of interest at 8.5 µM or 1.5 µM. Seventy-two hpi, supernatants from infected and treated cells were collected and viral titers were measured by plaque assay. To visualize plaques, confluent Vero cells in 24-well plates were inoculated with 1:10 serial dilutions of supernatants. After two hours, the inoculum was retired and replaced with 800 µL of overlay medium (MEM medium containing 1.3% methylcellulose, 2% FBS, 100 IU streptomycin/penicillin per mL and 10 mM HEPES). After 5 days (7 days for DENV), cells were washed with PBS, fixed with 2% formaldehyde, and stained using 0.5% crystal violet in 25% methanol. Infectious virus titer (pfu/mL) was determined using the following formula: number of plaques × dilution factor × (1/inoculum volume (mL)). Viral titers were normalized with DMSO-treated and infected cells (0% inhibition). The limit of detection was 200 pfu/mL (100% inhibition). […] Dose-response assays (Figure S4, Panels B and C) were performed for selected compounds using titer-reduction assays. We used a concentration range of 0.5 to 15 µM for all selected compounds except for compound 14 (range of 0.1–3 µM). Pfu/mL were normalized as mentioned for single-dose response experiment using the values for DMSO-treated and infected cells (0% inhibition) and the limit of detection value (200 pfu/mL) as 100% inhibition. Dose-response curves were built in GraphPad Prism and EC50 values were obtained from those curves.

ZIKV [2] = assay: ZIKV reporter assay (luciferase-expressing ZIKV PAN1 Nluc in Huh7 cells); type: cell-based; settings: Zika virus, Huh-7, Huh7, MOI 0.2, 72 hpi
Protocol: The initial screening for ZIKV was performed using the in-house developed infectious ZIKV reporter expressing Nanoluc (ZIKV PAN1 Nluc) (see details in SI). Briefly, 1.5 × 10^4 Huh7 cells per well were seeded in 96 well plates. Next day, cells were inoculated with the ZIKV reporter at a multiplicity of infection (MOI) of 0.2 in infection medium (MEM medium supplemented with 1% FBS, 100 IU streptomycin/penicillin per mL, 1 mM sodium pyruvate and 10 mM HEPES). After 2 h, the inoculum was replaced with post-infection medium (MEM medium supplemented with 5% FBS, 100 IU streptomycin/penicillin per mL, 1 mM sodium pyruvate and 10 mM HEPES) containing compound of interest (10 µM). We used the flavivirus NS5 MTase inhibitor NSC12155^13 (10 µM) and the NS5 RdRp inhibitor NITD008^12 (1 µM) as positive controls for inhibition or 0.05% DMSO as vehicle control. Seventy-two hours post-infection (hpi), the cells were lysed with 50 µL 1× luciferase lysis buffer (Promega, Madison, WI, USA), incubated 10 min at room temp and stored at −80 °C. Thirty-five µL of lysed cells were transferred to a white 96-well plate and combined with 35 µL Nano-Glo® luciferase assay substrate (Promega) diluted 1:50 in Nano-Glo® luciferase assay buffer (Promega). The reaction was incubated for 2 min and luminescence readings were acquired using a Neo 2 plate reader (BioTek, Winooski, VT, USA). Percent inhibition was calculated in GraphPad Prism (San Diego, CA, USA) normalizing the luciferase signal to infected cells treated with DMSO (0% inhibition) and uninfected cells treated with DMSO (100% inhibition). EC50 values were calculated in GraphPad Prism using data obtained from dose-response experiments. For compounds 1 and 8, a range of concentrations between 0.05 and 15 µM were used. For compounds 11, 14, 23 and NSC12155, we used concentrations from 0.005 to 90 µM and 0.002 to 45 µM for NITD008.

[3] = Cell viability assay (MTS); type: cell-based; settings: human, non-infected Huh7 cells; for viability at 10 µM: normalized to DMSO; for CC50 at 72 h: Huh7 cells
Protocol: Cell viability assays for non-infected Huh7 cells treated with the testing compounds (in-house library), control compounds (NITD008, RDV) and DMSO were performed in parallel with the antiviral screening. After 3 or 5 days of treatment, depending upon the experiment, cell viability was evaluated using the MTS-based tetrazolium reduction CellTiter 96 Aqueous Non-Radioactive cell proliferation assay (Promega). Treatment was retired from the wells and the cells incubated with MTS diluted 1:10 in MEM medium supplemented with 10% FBS. Absorbance was measured at 490 nm wavelength. Readings were normalized with DMSO-treated cells (100%) and expressed as % viability. For dose-response experiments, we used concentrations between 0.01 and 90 µM and dose-response curves and CC50 were calculated using GraphPad Prism.

SMILES	inhibition at 10 µM (ZIKV [2]) [%]	viability at 10 µM [3] [%]	inhibition at 8.5 µM (ZIKV [1]; Zika virus, 8.5 µM) [%]	also measured
Nc1ccc(Cn2ccc3c(NCc4cccc(Cl)c4)ncnc32)cc1 [Compound 2, 7-(4-Aminobenzyl)-N-(3-chlorobenzyl)-7H-pyrrolo[2,3-d]pyrimidin-4-amine]	72	38		Titer Reduction Assay % at 1.5 µM (ZIKV [1]; 1.5 µM): toxic
Clc1cccc(CNc2ncnc3c2ccn3Cc2ccccc2)c1 [Compound 3, 7-Benzyl-N-(3-chlorobenzyl)-7H-pyrrolo[2,3-d]pyrimidin-4-amine]	42	90	68	
O=[N+]([O-])c1ccccc1Cn1ccc2c(NCc3cccc(Cl)c3)ncnc21 [Compound 4, N-(3-Chlorobenzyl)-7-(2-nitrobenzyl)-7H-pyrrolo[2,3-d]pyrimidin-4-amine]	44	93	82	
O=[N+]([O-])c1cccc(Cn2ccc3c(NCc4cccc(Cl)c4)ncnc32)c1 [Compound 5, N-(3-Chlorobenzyl)-7-(3-nitrobenzyl)-7H-pyrrolo[2,3-d]pyrimidin-4-amine]	77	79	92	
FC(F)(F)c1ccc(Cn2ccc3c(NCc4cccc(Cl)c4)ncnc32)cc1 [Compound 6, N-(3-Chlorobenzyl)-7-(4-(trifluoromethyl)benzyl)-7H-pyrrolo[2,3-d]pyrimidin-4-amine]	85	62	83	
CS(=O)(=O)c1ccc(Cn2ccc3c(NCc4cccc(Cl)c4)ncnc32)cc1 [Compound 7, N-(3-Chlorobenzyl)-7-(4-(methylsulfonyl)benzyl)-7H-pyrrolo[2,3-d]pyrimidin-4-amine]	98	39		inhibition at 1.5 µM (ZIKV [1]; Zika virus, 1.5 µM): 69%
FC(F)(F)c1cccc(Cn2ccc3c(NCc4cccc(Cl)c4)ncnc32)c1 [Compound 9, N-(3-Chlorobenzyl)-7-(3-(trifluoromethyl)benzyl)-7H-pyrrolo[2,3-d]pyrimidin-4-amine]	92	61		Titer Reduction Assay % at 8.5 µM (ZIKV [1]; 8.5 µM): toxic
CS(=O)(=O)c1cccc(Cn2ccc3c(NCc4cccc(Cl)c4)ncnc32)c1 [Compound 10, N-(3-Chlorobenzyl)-7-(3-(methylsulfonyl)benzyl)-7H-pyrrolo[2,3-d]pyrimidin-4-amine]	72	82	92	
Clc1cccc(CNc2ncnc3c2ccn3Cc2cccc3ccccc23)c1 [Compound 12, N-(3-Chlorobenzyl)-7-(naphthalen-1-ylmethyl)-7H-pyrrolo[2,3-d]pyrimidin-4-amine]	84	73	66	
Clc1cccc(CNc2ncnc3c2ccn3Cc2ccc3ccccc3c2)c1 [Compound 13, N-(3-Chlorobenzyl)-7-(naphthalen-2-ylmethyl)-7H-pyrrolo[2,3-d]pyrimidin-4-amine]	75	45		inhibition at 1.5 µM (ZIKV [1]; Zika virus, 1.5 µM): 18%
Clc1cccc(CNc2ncnc3c2ccn3Cc2ccnc3ccccc23)c1 [Compound 14, N-(3-Chlorobenzyl)-7-(quinolin-4-ylmethyl)-7H-pyrrolo[2,3-d]pyrimidin-4-amine]	100	48		inhibition at 1.5 µM (ZIKV [1]; Zika virus, 1.5 µM): 94%; EC50 (ZIKV [1]; Zika virus, Huh-7): 1100 nM; EC90 (ZIKV [1]; Zika virus, Huh-7): 2280 nM; EC50 (ZIKV [2]): 930 nM; CC50 at 72 h [3]: 5670 nM
N#Cc1ccc(Cn2ccc3c(NCc4cccc(Cl)c4)ncnc32)c2ccccc12 [Compound 15, 4-((4-((3-Chlorobenzyl)amino)-7H-pyrrolo[2,3-d]pyrimidin-7-yl)methyl)-1-naphthonitrile]	69	84	0	CC50 at 72 h [3]: 39600 nM
Clc1cccc(CNc2ncnc3c2ccn3Cc2ccc3nc(Cl)ccc3c2)c1 [Compound 16, N-(3-Chlorobenzyl)-7-((2-chloroquinolin-6-yl)methyl)-7H-pyrrolo[2,3-d]pyrimidin-4-amine]	95	34		inhibition at 1.5 µM (ZIKV [1]; Zika virus, 1.5 µM): 10%
Nc1ncnc2c1ccn2Cc1ccc([N+](=O)[O-])cc1 [Compound 17, 7-(4-Nitrobenzyl)-7H-pyrrolo[2,3-d]pyrimidin-4-amine]	0	92		
O=[N+]([O-])c1ccc(Cn2ccc3c(NCc4ccccc4)ncnc32)cc1 [Compound 18, N-Benzyl-7-(4-nitrobenzyl)-7H-pyrrolo[2,3-d]pyrimidin-4-amine]	96	42		
O=[N+]([O-])c1ccc(Cn2ccc3c(NCc4ccccc4Cl)ncnc32)cc1 [Compound 19, N-(2-Chlorobenzyl)-7-(4-nitrobenzyl)-7H-pyrrolo[2,3-d]pyrimidin-4-amine]	49	80	91	
O=[N+]([O-])c1ccc(Cn2ccc3c(NCc4ccc(Cl)cc4)ncnc32)cc1 [Compound 20, N-(4-Chlorobenzyl)-7-(4-nitrobenzyl)-7H-pyrrolo[2,3-d]pyrimidin-4-amine]	93	49		inhibition at 1.5 µM (ZIKV [1]; Zika virus, 1.5 µM): 37%
O=[N+]([O-])c1ccc(Cn2ccc3c(NCc4cccc(Cl)c4Cl)ncnc32)cc1 [Compound 21, N-(2,3-Dichlorobenzyl)-7-(4-nitrobenzyl)-7H-pyrrolo[2,3-d]pyrimidin-4-amine]	67	77	91	
Cc1cccc(CNc2ncnc3c2ccn3Cc2ccc(C#N)cc2)c1 [Compound 25, 4-((4-((3-Methylbenzyl)amino)-7H-pyrrolo[2,3-d]pyrimidin-7-yl)methyl)benzonitrile]	84	33		
N#Cc1ccc(Cn2ccc3c(NCc4ccccc4Cl)ncnc32)cc1 [Compound 26, 4-((4-((2-Chlorobenzyl)amino)-7H-pyrrolo[2,3-d]pyrimidin-7-yl)methyl)benzonitrile]	58	76		
N#Cc1ccc(Cn2ccc3c(NCc4cccc(Cl)c4Cl)ncnc32)cc1 [Compound 27, 4-((4-((2,3-Dichlorobenzyl)amino)-7H-pyrrolo[2,3-d]pyrimidin-7-yl)methyl)benzonitrile]	71	78		
N#Cc1ccc(Cn2ccc3c(NCc4cc(Cl)ccc4Cl)ncnc32)cc1 [Compound 28, 4-((4-((2,5-Dichlorobenzyl)amino)-7H-pyrrolo[2,3-d]pyrimidin-7-yl)methyl)benzonitrile]	74	48		

— article PMC8270260, “4,7-Disubstituted 7H-Pyrrolo[2,3-d]pyrimidines and Their Analogs as Antiviral Agents against Zika Virus” (Molecules, 2021)
